Among the data in patent US10584115B2, “Substituted pyridine and pyrazine BMI-1 inhibitors” (PTC Therapeutics, Inc., priority 2013, dated 2020) are melting point and EC50 values, retold here.

Where two headings read alike, the source gives them in different places.

A word on the melting point: it is the temperature of the solid-liquid transition. The term EC50 denotes the concentration giving half of the maximal effect.

One series relates to Bmi-1 protein. Description: Sandwich ELISA Assay (Bmi-1 protein level in HT-1080 cells after compound treatment). It counts as cell-based. The essentials:
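Sandwich ELISA quantified Bmi-1 protein against recombinant standard (125–8000 pg/mL), with lysates captured overnight at 4 °C and signal by HRP/TMB at 450 nm (570 nm reference). Lysates came from HT-1080 cells incubated 40–48 h with test compounds in 0.5% DMSO.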
(An ELISA detects its analyte on a solid surface through an enzyme-linked reagent.)

The mark [1] stands for this setting: Table 1, Bmi-1 sandwich ELISA, read-out: ELISA EC50 value for Bmi-1 protein.
The mark [2] stands for this setting: read-out: ELISA EC50 value for Bmi-1 protein, Table 1, Bmi-1 sandwich ELISA.

On to `CCOC(=O)n1nc(C)c(-c2cncc(Nc3ccc(OC(F)F)cc3)n2)c1C` [compound 279, ethyl 4-(6-{[4-(difluoromethoxy)phenyl]amino}pyrazin-2-yl)-3,5-dimethyl-1H-pyrazole-1-carboxylate], for which the melting point lay in the range of 92 to 93 °C. Also, in the series on Bmi-1 protein (setting [1]), the 50% effective concentration (EC50) is 100 to 3000 nM.

In turn, `Cc1c(-c2cncc(Nc3ccc(OC(F)(F)F)cc3)n2)c(C(F)(F)F)nn1C` [compound 281, 6-[1,5-dimethyl-3-(trifluoromethyl)-1H-pyrazol-4-yl]-N-[4-(trifluoromethoxy)phenyl]pyrazin-2-amine] registered a melting point of 157 to 158 °C. The concentration for a half-maximal effect (EC50) in the series on Bmi-1 protein (setting [1]) lay in the range of 100 to 3000 nM.

Compound `Cc1nc2ccc(F)cn2c1-c1cncc(Nc2ccc(C(F)(F)F)c(F)c2)n1` [compound 310, 6-(6-fluoro-2-methylimidazo[1,2-a]pyridin-3-yl)-N-[3-fluoro-4-(trifluoromethyl)phenyl]pyrazin-2-amine] came in with a melting point of 216 to 218 °C. Moreover, the concentration giving a half-maximal response (EC50) with Bmi-1 protein (setting [1]) lay within 10 to 100 nM.

In turn, `Cc1nc2ccc(F)cn2c1-c1cc(C#N)cc(Nc2ccc(OC(F)F)c(F)c2)n1` [compound 311, 2-{[4-(difluoromethoxy)-3-fluorophenyl]amino}-6-(6-fluoro-2-methylimidazo[1,2-a]pyridin-3-yl)pyridine-4-carbonitrile] yielded a melting point of 231 to 233 °C. Further, in the series with Bmi-1 protein (setting [1]), the EC50 lay in the range of 1 to 10 nM.

`Cc1nc2ccc(F)cn2c1-c1cc(C#N)cc(Nc2ccc(C(F)(F)F)c(F)c2)n1` [compound 312, 2-(6-fluoro-2-methylimidazo[1,2-a]pyridin-3-yl)-6-{[3-fluoro-4-(trifluoromethyl)phenyl]amino}pyridine-4-carbonitrile] gave a melting point of 245 to 249 °C. Further, the concentration for a half-maximal effect (EC50) with Bmi-1 protein (setting [1]) lay within 10 to 100 nM.

In turn, `Cc1nc2ccc(F)cn2c1-c1cc(N)cc(Nc2ccc(OC(F)F)c(F)c2)n1` [compound 315, N^2-[4-(difluoromethoxy)-3-fluorophenyl]-6-(6-fluoro-2-methylimidazo[1,2-a]pyridin-3-yl)pyridine-2,4-diamine] gave a melting point of 182 to 183 °C. In addition, in the series with Bmi-1 protein (setting [1]), the EC50 is 1 to 10 nM.

Consider `Cc1nc2ccc(F)cn2c1-c1cc(N)cc(Nc2ccc(C(F)(F)F)cc2)n1` [compound 316, 6-(6-fluoro-2-methylimidazo[1,2-a]pyridin-3-yl)-N^2-[4-(trifluoromethyl)phenyl]pyridine-2,4-diamine], for which the melting point lay in the range of 161 to 163 °C. In addition, in the series with Bmi-1 protein (setting [2]), the EC50 was 1 to 10 nM.

Compound `Cc1nc2ccc(F)cc2n1-c1cncc(Nc2ccc(OC(F)F)c(F)c2)n1` [compound 320, N-[4-(difluoromethoxy)-3-fluorophenyl]-6-(6-fluoro-2-methyl-1H-benzimidazol-1-yl)pyrazin-2-amine] came in with a melting point of 230 to 231 °C. Moreover, the EC50 in the series with Bmi-1 protein (setting [1]) lay in the range of 10 to 100 nM.

For the compound `CCn1nc(C(F)(F)F)c(-c2cncc(Nc3ccc(C(F)(F)F)cc3)n2)c1C` [compound 329, 6-[1-ethyl-5-methyl-3-(trifluoromethyl)-1H-pyrazol-4-yl]-N-[4-(trifluoromethyl)phenyl]pyrazin-2-amine], the melting point lay in the range of 150 to 151 °C. Also, the 50% effective concentration (EC50) with Bmi-1 protein (setting [1]) was 10 to 100 nM.

The compound `CCn1nc(C(F)(F)F)c(-c2cncc(Nc3ccc(OC(F)(F)F)cc3)n2)c1C` [compound 331, 6-[1-ethyl-5-methyl-3-(trifluoromethyl)-1H-pyrazol-4-yl]-N-[4-(trifluoromethoxy)phenyl]pyrazin-2-amine] yielded a melting point of 128 to 129 °C. Further, in the series with Bmi-1 protein (setting [1]), the concentration giving a half-maximal response (EC50) fell in the range of 100 to 3000 nM.

`CCc1nn(C)c(CC)c1-c1cncc(Nc2ccc(C(F)(F)F)cc2)n1` [compound 332, 6-(3,5-diethyl-1-methyl-1H-pyrazol-4-yl)-N-[4-(trifluoromethyl)phenyl]pyrazin-2-amine] returned a melting point of 59 to 60 °C. Further, the concentration giving a half-maximal response (EC50) in the series with Bmi-1 protein (setting [1]) fell in the range of 10 to 100 nM.

Compound `CCc1nn(C)c(CC)c1-c1cncc(Nc2ccc(OC(F)(F)F)cc2)n1` [compound 334, 6-(3,5-diethyl-1-methyl-1H-pyrazol-4-yl)-N-[4-(trifluoromethoxy)phenyl]pyrazin-2-amine] had a melting point of 122 to 123 °C. Also, the EC50 with Bmi-1 protein (setting [1]) is 10 to 100 nM.

In the case of `Cc1nn(CCO)c(C)c1-c1cncc(Nc2ccc(C(F)(F)F)cc2)n1` [compound 335, 2-[3,5-dimethyl-4-(6-{[4-(trifluoromethyl)phenyl]amino}pyrazin-2-yl)-1H-pyrazol-1-yl]ethanol], the melting point was 172 to 174 °C. Besides, the EC50 in the series with Bmi-1 protein (setting [1]) was 1 to 10 nM.

On to `Fc1ccc2nc(C3CC3)c(-c3cncc(Nc4ccc(C(F)(F)F)cc4)n3)n2c1` [compound 336, 6-(2-cyclopropyl-6-fluoroimidazo[1,2-a]pyridin-3-yl)-N-[4-(trifluoromethyl)phenyl]pyrazin-2-amine], for which the melting point was 183 to 185 °C. The EC50 with Bmi-1 protein (setting [1]) lay in the range of 1 to 10 nM.

As to `Fc1ccc2nc(C3CC3)c(-c3cncc(Nc4ccc(OC(F)F)cc4)n3)n2c1` [compound 337, 6-(2-cyclopropyl-6-fluoroimidazo[1,2-a]pyridin-3-yl)-N-[4-(difluoromethoxy)phenyl]pyrazin-2-amine], the melting point lay within 183 to 185 °C. In the series with Bmi-1 protein (setting [1]), the EC50 was less than 1 nM.

In turn, `Fc1ccc2nc(C3CC3)c(-c3cncc(Nc4ccc(OC(F)F)c(F)c4)n3)n2c1` [compound 338, 6-(2-cyclopropyl-6-fluoroimidazo[1,2-a]pyridin-3-yl)-N-[4-(difluoromethoxy)-3-fluorophenyl]pyrazin-2-amine] returned a melting point of 173 to 175 °C. In addition, the EC50 in the series with Bmi-1 protein (setting [1]) fell in the range of 1 to 10 nM.

`N#Cc1cc(Nc2ccc(C(F)(F)F)cc2)nc(-c2c(C3CC3)nc3ccc(F)cn23)c1` [compound 346, 2-(2-cyclopropyl-6-fluoroimidazo[1,2-a]pyridin-3-yl)-6-{[4-(trifluoromethyl)phenyl]amino}pyridine-4-carbonitrile] showed a melting point of 245 to 247 °C. Moreover, the concentration giving a half-maximal response (EC50) with Bmi-1 protein (setting [1]) is 10 to 100 nM.

Compound `N#Cc1cc(Nc2ccc(C(F)(F)F)c(F)c2)nc(-c2c(C3CC3)nc3ccc(F)cn23)c1` [compound 347, 2-(2-cyclopropyl-6-fluoroimidazo[1,2-a]pyridin-3-yl)-6-{[3-fluoro-4-(trifluoromethyl)phenyl]amino}pyridine-4-carbonitrile] had a melting point of 256 to 258 °C. Further, in the series on Bmi-1 protein (setting [1]), the EC50 was 10 to 100 nM.

`N#Cc1cc(Nc2ccc(OC(F)F)c(F)c2)nc(-c2c(C3CC3)nc3ccc(F)cn23)c1` [compound 349, 2-(2-cyclopropyl-6-fluoroimidazo[1,2-a]pyridin-3-yl)-6-{[4-(difluoromethoxy)-3-fluorophenyl]amino}pyridine-4-carbonitrile] returned a melting point of 185 to 186 °C. Moreover, the EC50 in the series on Bmi-1 protein (setting [1]) is 10 to 100 nM.

For the compound `N#Cc1cc(Nc2ccc(OC(F)(F)F)cc2)nc(-c2c(C3CC3)nc3ccc(F)cn23)c1` [compound 350, 2-(2-cyclopropyl-6-fluoroimidazo[1,2-a]pyridin-3-yl)-6-{[4-(trifluoromethoxy)phenyl]amino}pyridine-4-carbonitrile], the melting point was 194 to 195 °C. In addition, the EC50 with Bmi-1 protein (setting [1]) lay within 10 to 100 nM.

In turn, `Cc1nn(CCn2ncnn2)c(C)c1-c1cncc(Nc2ccc(C(F)(F)F)cc2)n1` [compound 352, 6-{3,5-dimethyl-1-[2-(2H-tetrazol-2-yl)ethyl]-1H-pyrazol-4-yl}-N-[4-(trifluoromethyl)phenyl]pyrazin-2-amine] had a melting point of 138 to 139 °C. The EC50 with Bmi-1 protein (setting [2]) lay within 1 to 10 nM.

`Fc1ccc2nc(C3CC3)n(-c3cncc(Nc4ccc(C(F)(F)F)cc4)n3)c2c1` [compound 362, 6-(2-cyclopropyl-6-fluoro-1H-benzimidazol-1-yl)-N-[4-(trifluoromethyl)phenyl]pyrazin-2-amine] had a melting point of 263 to 265 °C. Further, in the series with Bmi-1 protein (setting [1]), the EC50 lay within 1 to 10 nM.

Consider `Nc1cc(Nc2ccc(C(F)(F)F)cc2)nc(-c2c(C3CC3)nc3ccc(F)cn23)c1` [compound 363, 6-(2-cyclopropyl-6-fluoroimidazo[1,2-a]pyridin-3-yl)-N^2-[4-(trifluoromethyl)phenyl]pyridine-2,4-diamine], for which the melting point lay within 160 to 162 °C. Also, in the series on Bmi-1 protein (setting [1]), the EC50 is 100 to 3000 nM.

On to `Nc1cc(Nc2ccc(OC(F)F)cc2)nc(-c2c(C3CC3)nc3ccc(F)cn23)c1` [compound 365, 6-(2-cyclopropyl-6-fluoroimidazo[1,2-a]pyridin-3-yl)-N^2-[4-(difluoromethoxy)phenyl]pyridine-2,4-diamine], for which the melting point lay within 185 to 186 °C. Moreover, the EC50 in the series with Bmi-1 protein (setting [1]) fell in the range of 100 to 3000 nM.

As to `Nc1cc(Nc2ccc(OC(F)F)c(F)c2)nc(-c2c(C3CC3)nc3ccc(F)cn23)c1` [compound 366, 6-(2-cyclopropyl-6-fluoroimidazo[1,2-a]pyridin-3-yl)-N^2-[4-(difluoromethoxy)-3-fluorophenyl]pyridine-2,4-diamine], the melting point fell in the range of 169 to 170 °C. For the same compound, the EC50 with Bmi-1 protein (setting [1]) lay within 100 to 3000 nM.

`Nc1cc(Nc2ccc(OC(F)(F)F)cc2)nc(-c2c(C3CC3)nc3ccc(F)cn23)c1` [compound 367, 6-(2-cyclopropyl-6-fluoroimidazo[1,2-a]pyridin-3-yl)-N^2-[4-(trifluoromethoxy)phenyl]pyridine-2,4-diamine] displayed a melting point of 166 to 168 °C. Besides, the EC50 in the series on Bmi-1 protein (setting [1]) lay in the range of 10 to 100 nM.

`NS(=O)(=O)Nc1cc(Nc2ccc(C(F)(F)F)cc2)nc(-c2c(C3CC3)nc3ccc(F)cn23)c1` [compound 368, N-[2-(2-cyclopropyl-6-fluoroimidazo[1,2-a]pyridin-3-yl)-6-{[4-(trifluoromethyl)phenyl]amino}pyridin-4-yl]sulfuric diamide] showed a melting point of 158 to 160 °C. The EC50 in the series on Bmi-1 protein (setting [1]) lay within 100 to 3000 nM.

As for `NC(=O)Nc1cc(Nc2ccc(C(F)(F)F)cc2)nc(-c2c(C3CC3)nc3ccc(F)cn23)c1` [compound 369, 1-[2-(2-cyclopropyl-6-fluoroimidazo[1,2-a]pyridin-3-yl)-6-{[4-(trifluoromethyl)phenyl]amino}pyridin-4-yl]urea], the melting point lay within 232 to 235 °C. For the same compound, the EC50 with Bmi-1 protein (setting [2]) was 100 to 3000 nM.
